Measured values taken from patent publication US7988972B2, “Immunoreactive peptides from Epstein-Barr virus” (Ortho-Clinical Diagnostics, Inc., priority 1993, dated 2011).

Assays:
[1] = system: EA reactive antibody (IgG) in infectious mononucleosis (IM) sera; experiment: ELISA, EA peptides with EBV infectious mononucleosis sera; format: binding, human; settings: EA positive EBV IM acute serum
Experimental: (§1) ELISA. The ELISA for measuring specific antibodies to p17, p50 or to the synthetic peptides was performed as previously described in detail (Luka et al., J. Immunol. Methods, 67:145-156, 1984). Aliquots of different antigen concentrations were diluted in 0.5M Na2CO3 buffer, pH 9.5, added to wells in polystyrene microtiter plates (Linbro) and the plates incubated overnight at 4° C. Following this incubation period, the plates were washed 5× with Tris-HCl, pH 7.4, containing 0.05% Tween 20, 50 mM NaCl and 100 mg per liter albumin (Sigma) and dried for 20 minutes at room temperature. The plates were screened with different anti-EA-R or EA-D antibody positive human sera and the monoclonal antibody to p17 or p50 to identify the optimal concentration of antigen to be used in the serological studies. Alkaline-phosphatase-labelled goat anti-human IgG (Sigma) or goat anti-mouse IgG (Sigma) was used as the indicator system.
(§2) For the testing of human sera for antibodies to native p17, p50 or to the synthetic peptides, sera were diluted 1:10 in ELISA buffer, added in 0.1 ml volumes to wells coated with optimal concentrations of antigen and the plates were incubated for 60 minutes at room temperature. After 4 washes with ELISA buffer, 100 μl of alkaline phosphatase-labelled goat anti-human IgG in ELISA buffer were added to each well and the plates were incubated at room temperature for 1 hour. Following four more washes in buffer, the enzyme reaction was performed by dissolving 1 mg per ml of Sigma alkaline phosphatase substrate in 1M diethanolamine buffer, pH 10.4, containing 1 mM MgCl2 and 0.1 mM ZnCl2, and 100 μl of the mixture was then added to each well. The reaction was allowed to proceed for 30 minutes at 37° C. and then the plates were screened directly with a microplate reader, TITERTEK MULTISKAN MC (Flow), at 420 nm. Readings above 0.1 which was 2× the background noted with antibody-negative sera were considered positive reactions.
When the entire 50.10 peptide was tested with 1M sera, 24/32 or 75% of the sera contained EA-D reactive antibody (IgG) (Table 4).
Serological reactivity of EA peptides p17.1 and p50.1 which contained additional amino acids on their amino and carboxy termini was tested on EBV IM acute sera which was EA positive. The ELISA results shown in Table 5 indicate that the additional amino acids improved reactivity for both EA peptides.
Immunofluorescence assays (IFA) were performed as described by Henle, et al. (Int. J. Cancer, 8:272-282, 1971). Western blot analysis was done by methods commonly used in the art (See for example, Coligan, et al., Current Protocols in Immunology, Wiley Interscience, 1991, Unit 12). Samples of EBV-infected cell lysates (P3HR-1) were tested with human whole antiserum from positive humans (Pearson, et al., Virology, 160:151-161, 1987). A comparison was made between EA serology by IFA, using the EA-D 50.1 peptide antisera, and ELISA serology using 50.1 peptide (see Example 2).

[2] = system: peripheral blood lymphocytes (PBL); experiment: Proliferation assay of peripheral blood lymphocytes (3H-thymidine incorporation); format: cell-based, human; settings: for proliferation response: PBL from 3 anti-VCA-positive anti-EA-antibody-negative individuals; for 3H-thymidine Incorporation (cpm + S.D.) / S.I. (stimulation index): PBL from anti-VCA-positive, anti-EA-positive donor, 5 days
Experimental: Proliferation assays. T-cell proliferation assays using the native p17 or p50 polypeptide or the synthetic peptides were performed as previously described in detail (Pothen et al., Int. J. Cancer, 49:656-660, 1991). Briefly, peripheral blood lymphocytes (PBLO from sero-positive donors were isolated on FICOLL-HYPAQUE gradients, washed and resuspended in RPMI 1640 media containing 10% heat-inactivated human A^+ serum from a sero-negative donor. Cells (1×10^5 per 0.1 ml) were then added to each well in 96-well, round-bottomed tissue culture plates (Costar, Cambridge, Mass.). The different antigen preparations were added to triplicate wells in 0.1 ml volumes and the plates were incubated at 37° C. for 5 days. ^3H-thymidine (5 Ci per mM) was added at a concentration of 1 μCi per well over the last 4 hours of culture. The cells were then harvested with a multichannel sample harvester and ^3H-thymidine incorporation was determined using a Beckman Model LS 3801 liquid scintillation counter. Stimulation indices for the test antigens were calculated by dividing the average counts per minute (CPMO for the test antigens by the average CPM of the medium control wells.
PBL from asymptomatic EBV-infected individuals were tested for response to any of the three p17 synthetic peptides (Table 1) by a proliferation assay using lymphocytes previously shown to proliferate in the presence of native p17 (Pothen et al., Int. J. Cancer, 49:656-660, 1991). Different concentrations of the synthetic peptides were incubated with the PBL for 5 days and then proliferation was assayed by the incorporation of ^3H-thymidine. The native p17 purified from activated P3HR-1 cells gave a S.I. of 15.8 in this experiment. […] Neither of the other synthetic peptides induced a proliferation response at the concentrations tested.
PBL from 3 anti-VCA-positive anti-EA-antibody-negative individuals were also examined in the proliferation assay with the three synthetic peptides. Again, all 3 PBL preparations responded to the highest concentrations of p17.1 with S.I.'s ranging from 3.5-11. Two of the preparations (FIG. 2A,C) also proliferated in the presence of lower concentrations of antigen with S.I.'s of 3 and 5 respectively. […] These experiments established that T-lymphocytes from EBV-infected individuals, irrespective of the presence of antibody to EA, recognized a dominant epitope on p17.

[3] = system: anti-EA antibodies in human sera; experiment: ELISA, serological reactivity of human sera with p17 synthetic peptides; format: binding; settings: for share of anti-EA-positive sera that reacted: 87 anti-EA antibody-positive sera (titer>160), 2 μg peptide per well; for No. Positive/No. Tested / No. Positive/No. Tested (%): sera 1:10
Experimental: as §1, §2
Studies were designed to determine the serological reactivity with the p17 synthetic epitopes. For this purpose, 87 anti-EA antibody-positive sera (titer>160) were tested in the ELISA against optimal pre-determined concentrations (2 μg per well) of the p17 synthetic peptides. The sera were obtained from 28 patients with African Burkift's lymphoma (ABL) collected during the Ghanian Burkitt Tumor Project, and from 28 North American patients with intermediate large cell, or high grade non-Hodgkin's lymphoma (NANHL). The donors included both HIV-positive and HIV-negative individuals. In addition, sera from 31 North American nasopharyngeal carcinoma (NANPC) patients were examined in this study (Pearson, G. R., et al., Cancer, 51:260-268, 1983). To validate the EA specificity of the serological reactions, the results with these sera were compared with results with 23 VCA and EA antibody-negative sera and 30 VCA-antibody-positive, EA-antibody negative sera. In contrast to the T-cell proliferation results, all three synthetic peptides reacted with the EA antibody-positive sera to varying degrees with p17.1 again being the dominant epitope. Approximately 60% of the anti-EA-positive sera reacted with p17.1, 48% with p17.2 and 23% with p17.3.
Seventy-one percent of the sera from ABL patients and 93% of the sera from patients with NANHL reacted with p17.1 as opposed to 23% of the sera from North American patients with NPC.

[4] = serum donors: Burkitt's lymphoma (African), EA titers >160
[5] = serum donors: Lymphoma (total), EA titers >160
[6] = serum donors: Nasopharyngeal carcinoma (North American), EA titers >160
[7] = serum donors: Non-Hodgkin's lymphoma (North American), EA titers >160
[8] = serum donors: Normal (VCA + EA-)
[9] = serum donors: Normal (VCA − EA-)

Sequence | ELISA result, peptides with and without extensions ([1]; sample no. 2241) | ELISA result, peptides with and without extensions ([1]; sample no. 12498) | ELISA result, peptides with and without extensions ([1]; sample no. 12836) | proliferation response [2] | 3H-thymidine Incorporation (cpm + S.D.) ([2]; 3.12 μg/ml) [cpm] | S.I. (stimulation index) ([2]; 3.12 μg/ml) | 3H-thymidine Incorporation (cpm + S.D.) ([2]; 12.5 μg/ml) [cpm] | S.I. (stimulation index) ([2]; 12.5 μg/ml) | 3H-thymidine Incorporation (cpm + S.D.) ([2]; 50 μg/ml) [cpm] | share of anti-EA-positive sera that reacted [3] [%] | No. Positive/No. Tested [3, 4] | No. Positive/No. Tested (%) [3, 4] [%] | No. Positive/No. Tested [3, 5] | No. Positive/No. Tested (%) [3, 5] [%] | No. Positive/No. Tested [3, 6] | No. Positive/No. Tested (%) [3, 6] [%] | No. Positive/No. Tested [3, 7] | No. Positive/No. Tested (%) [3, 7] [%] | No. Positive/No. Tested [3, 8] | No. Positive/No. Tested (%) [3, 8] [%] | also measured
ARQKQKHPKKVKQAFNPLI [50.1e, extension of p50.10 by the addition of several amino and carboxy-terminal amino acids] | >2 | 0.946 | 1.718 |  |  |  |  |  |  |  |  |  |  |  |  |  |  |  |  |  | 
QNSETFTETWNRFITHTEHVD [17.1e, extension of p17.1 by the addition of several amino and carboxy-terminal amino acids] | 1.277 | 0.502 | 1.257 |  |  |  |  |  |  |  |  |  |  |  |  |  |  |  |  |  | 
GMLEASEGLDGWIHQ [p17.2, synthetic peptide from 17 Kd early antigen (EA-R) region of EBV] |  |  |  | None of these PBL preparations proliferated | 157 ± 23 | 1.1 | 278 ± 58 | 1.9 | 277 ± 175 | 48 | 13/28 | 46 | 36/56 | 64 | 6/31 | 19 | 23/28 | 82 | 0/30 | 0 | No. Positive/No. Tested [3, 9]: 0/23
HQQGGWSTLIEDNIP [p17.3, synthetic peptide from 17 Kd early antigen (EA-R) region of EBV] |  |  |  | None of these PBL preparations proliferated | 194 ± 65 | 1.3 | 132 ± 3 | 0 | 190 ± 47 | 23 | 9/28 | 32 | 16/56 | 29 | 4/31 | 13 | 7/28 | 25 | 0/30 | 0 | No. Positive/No. Tested [3, 9]: 0/23
